Experiments:
[1] = tested on: MCF-7 cells; assay: MTT cytotoxicity assay, MCF-7; type: cell-based, human; settings: for IC50: MCF7, human breast cancer cell line, MTT, 48 h exposure, mean ± SD, three independent experiments
Protocol: (§1) All compounds were evaluated for their in vitro cytotoxic activity against five human cancer cell lines including human breast MCF-7, human breast MDA-MB-435, human lung A549, human liver HepG2 and human colon HCT-116, and compared with their effects on the immortalized human breast epithelial cell line MCF-10A by MTT assay using epirubicin (an anticancer drug used widely in the clinic) as positive control.
(§2) MCF-7, MDA-MB-435, A549, HepG2 and HCT-116 cells were cultured in Dulbecco’s modification Eagle’s medium (DMEM, Invitrogen, Carlsbad, CA, USA) supplemented with 10% fetal bovine serum (FBS, Hyclone, Logan, UT, USA), 2 mM L-glutamine, 100 μg/mL streptomycin and 100 U/mL penicillin (Invitrogen). MCF-10A cells were cultured in keratinocyte serum free medium (KSFM) supplemented with 0.1–0.2 ng/mL human recombinant epidermal growth factor and 20–30 μg/mL bovine pituitary extract (Invitrogen). The cells were incubated at 37 °C in a humidified atmosphere with 5% CO2.
(§3) Cells were harvested during logarithmic growth phase and seeded in 96-well plates at a density of 1 × 10^4 cells/mL, and cultured at 37 °C in a humidified incubator (5% CO2) for 24 h, followed by exposure to various concentrations of compounds tested for 48 h. Subsequently 20 μL of MTT (Genview, Houston, TX, USA) solution (5 mg/mL) was added to each well and mixed, the cells were then incubated for an additional 4 h. Culture supernatant was moved, 150 μL of DMSO (Sangon Biotech, Shanghai, China) was added to each well to fully dissolve the MTT-formazan crystals. Cell growth inhibition was determined by measuring the absorbance (Abs) at λ = 570 nm using a microplate reader and calculated according to the following equation:
(§4) Growth inhibition = (1 − OD of treated cells/OD of control cells) × 100%
(§5) The half maximal inhibitory concentrations (IC50) were obtained from liner regression analysis of the concentration-response curves plotted for each tested compound.

[2] = tested on: MDA-MB-435 cells; assay: MTT cytotoxicity assay, MDA-MB-435; type: cell-based, human; settings: for IC50: MDA-MB-435, human breast cancer cell line, MTT, 48 h exposure, mean ± SD, three independent experiments
Protocol: as §1, §2, §3, §4, §5

[3] = tested on: A549 cells; assay: MTT cytotoxicity assay, A549; type: cell-based, human; settings: for IC50: A549, human lung cancer cell line, MTT, 48 h exposure, mean ± SD, three independent experiments
Protocol: as §1, §2, §3, §4, §5

[4] = tested on: HepG2 cells; assay: MTT cytotoxicity assay, HepG2; type: cell-based, human; settings: for IC50: human liver cancer cell line, MTT, 48 h exposure, mean ± SD, three independent experiments
Protocol: as §1, §2, §3, §4, §5

[5] = tested on: HCT-116 cells; assay: MTT cytotoxicity assay, HCT-116; type: cell-based, human; settings: for IC50: HCT-116, human colon cancer cell line, MTT, 48 h exposure, mean ± SD, three independent experiments
Protocol: as §1, §2, §3, §4, §5

[6] = MTT cytotoxicity assay, MCF-10A; type: cell-based; settings: MCF-10A cells, immortalized human breast epithelial cell line, 48 h exposure, mean ± SD, three independent experiments
Protocol: as §1, §2, §3, §4, §5

[7] = tested on: five human cancer cell lines (MCF-7, MDA-MB-435, A549, HepG2, HCT-116); assay: MTT cytotoxicity assay, panel of five human cancer cell lines (summary statements); type: cell-based; settings: MCF-7, MDA-MB-435, A549, HepG2 and HCT-116, read-out: IC50 against the tested human cancer cell lines (summary over the panel)
Protocol: as §1, §2
Cells were harvested during logarithmic growth phase and seeded in 96-well plates at a density of 1 × 10^4 cells/mL, and cultured at 37 °C in a humidified incubator (5% CO2) for 24 h, followed by exposure to various concentrations of compounds tested for 48 h. […] Cell growth inhibition was determined by measuring the absorbance (Abs) at λ = 570 nm using a microplate reader and calculated according to the following equation: […]

[8] = ratio of IC50 values, bostrycin vs compound

SMILES | IC50 [1] | IC50 [2] | IC50 [3] | IC50 ([4]; Homo sapiens, HepG2, 48 h) | IC50 [5] | IC50 at 48 h [6] | IC50 [7] | melting point | fold more active than bostrycin, MCF-7 [1, 8] | fold more active than bostrycin, MDA-MB-435 [2, 8] | fold more active than bostrycin, A549 [3, 8] | IC50 [4] | fold more active than bostrycin, HepG2 [4, 8] | fold more active than bostrycin, HCT-116 [5, 8]
COc1cc(O)c2c(c1O)C(=O)c1cc(C)ccc1C2=O [Compound 4, Austrocortinin] | > 50 µM | 41.6 ± 2.63 µM | > 50 µM | > 50 µM | > 50 µM | > 50 µM | > 50 µM | 232 to 233 °C | – | – | – | – | – | –
COc1ccc(CNC2=CC(=O)c3c(O)c4c(c(O)c3C2=O)C[C@](C)(O)[C@H](O)[C@H]4O)cc1 [Compound 18, 6-(p-Methoxybenzylamino)-6-demethoxybostrycin] | 9.17 ± 0.28 µM | 25.6 ± 1.71 µM | 15.2 ± 0.42 µM | > 50 µM | 13.6 ± 1.85 µM | 27.7 ± 0.93 µM | – | 149 to 150 °C | – | – | – | – | – | –
C[C@]1(O)Cc2c(O)c3c(c(O)c2[C@H](O)[C@H]1O)C(=O)C=C(NCc1ccc(F)cc1)C3=O [Compound 19, 6-(p-Fluorobenzylamino)-6-demethoxybostrycin] | 7.94 ± 0.26 µM | 7.86 ± 1.2 µM | 6.25 ± 0.43 µM | > 50 µM | 4.92 ± 0.38 µM | 7.5 ± 0.69 µM | – | 147 to 148 °C | – | – | – | – | – | –
CCSC1=C(SCC)C(=O)c2c(O)c3c(c(O)c2C1=O)C[C@](C)(O)[C@H](O)[C@H]3O [Compound 23, 6,7-bis(Ethylthio)-6-demethoxybostrycin] | 0.71 ± 0.01 µM | 0.76 ± 0.06 µM | 4.07 ± 0.51 µM | 6.9 ± 0.26 µM | 0.95 ± 0.06 µM | 14.8 ± 0.96 µM | – | 180 to 181 °C | – | – | – | – | – | –
CCCCSC1=C(SCCCC)C(=O)c2c(O)c3c(c(O)c2C1=O)C[C@](C)(O)[C@H](O)[C@H]3O [Compound 24, 6,7-bis(n-Butylthio)-6-demethoxybostrycin] | 2.45 ± 0.48 µM | 7.05 ± 0.56 µM | 4.06 ± 0.42 µM | 4.03 ± 0.13 µM | 3.25 ± 0.54 µM | 30.6 ± 2.54 µM | – | 124 to 125 °C | – | – | – | – | – | –
CCCCCCSC1=C(SCCCCCC)C(=O)c2c(O)c3c(c(O)c2C1=O)C[C@](C)(O)[C@H](O)[C@H]3O [Compound 25, 6,7-bis(n-Hexylthio)-6-demethoxybostrycin] | 2.6 ± 0.45 µM | 10.6 ± 1.11 µM | 0.71 ± 0.01 µM | 3.33 ± 0.66 µM | 0.74 ± 0.1 µM | 35 ± 1.94 µM | – | 112 to 113 °C | – | – | – | – | – | –
C[C@]1(O)Cc2c(O)c3c(c(O)c2[C@H](O)[C@H]1O)C(=O)C1=C(SCCS1)C3=O [Compound 28, 6,7-(Ethan-1′,2′-yl-dithio)-6-demethoxybostrycin] | 0.57 ± 0.04 µM | 0.63 ± 0.45 µM | 0.37 ± 0.04 µM | – | 0.68 ± 0.08 µM | 0.81 ± 0.11 µM | – | > 300 °C | 3.8 fold | 4.5 fold | 7.1 fold | 0.82 ± 0.01 µM | 9.4 fold | 7.0 fold
